molecular target: T1, mutant MGL (mut-MGLL 11-313 L179S L186S) (Homo sapiens, UniProt Q99685, L169S/L176S); assay: MGL Enzyme Activity Assay, purified mutant MGL, 4MU-B substrate; assay type: biochemical; details: mutant MGL 5 nM, 4MU-B 10 μM, 37° C.; read-out: MGL mutant inh IC50
T1 construct: purified mutant MGL (mut-MGLL 11-313 L179S L186S)
T1 sequence (Q99685 1-303 L169S/L176S): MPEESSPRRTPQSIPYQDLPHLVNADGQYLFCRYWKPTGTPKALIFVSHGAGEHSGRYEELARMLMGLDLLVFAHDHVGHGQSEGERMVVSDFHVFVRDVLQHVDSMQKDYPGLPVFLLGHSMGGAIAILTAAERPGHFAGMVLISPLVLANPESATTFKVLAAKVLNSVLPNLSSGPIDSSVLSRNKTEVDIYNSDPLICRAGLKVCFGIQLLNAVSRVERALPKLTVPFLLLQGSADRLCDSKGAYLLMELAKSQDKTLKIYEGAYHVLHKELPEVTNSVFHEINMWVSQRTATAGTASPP
Protocol: All rate-based assays were performed in black 384-well polypropylene PCR microplates (Abgene) in a total volume of 30 μL. Substrate 4-methylumbelliferyl butyrate (4MU-B; Sigma) and either purified mutant MGL (mut-MGLL 11-313 L179S L186S) or purified wild type MGL (wt-MGLL 6H-11-313) were diluted separately into 20 mM PIPES buffer (pH=7.0), containing 150 mM NaCl and 0.001% Tween 20. Compounds of Formula (I), including Formulas I(a), I(b), and I(c), were pre-dispensed (50 nL) into the assay plate using a Cartesian Hummingbird prior to adding 4MU-B (25 μL of 1.2× solution to a final concentration of 10 μM) followed by enzyme (5 μL of a 6× solution to a final concentration of 5 nM) to initiate the reaction. Final compound concentrations ranged from 17 to 0.0003 μM. The fluorescence change due to 4MU-B cleavage was monitored with excitation and emission wavelengths of 335 and 440 nm, respectively, and a bandwidth of 10 nm (Safire^2, Tecan) at 37° C. for 5 min.
The IC50 values for the following compounds were determined using Microsoft Office Excel from a fit of the equation to the concentration-response plot of the fractional activity as a function of inhibitor concentration.

Going from `O=C(NC1CN(C2CN(C(=O)c3cc4ccc(-c5ccccc5)cc4s3)C2)C1)c1nccs1` [Cpd 6, N-{1′-[(6-Phenyl-1-benzothiophen-2-yl)carbonyl]-1,3′-biazetidin-3-yl}-1,3-thiazole-2-carboxamide] to `O=C(NC1CN(C2CN(C(=O)c3ccc(-c4ccccc4)cc3)C2)C1)c1nccs1` [Cpd 29, N-[1′-(Biphenyl-4-ylcarbonyl)-1,3′-biazetidin-3-yl]-1,3-thiazole-2-carboxamide], the IC50 rises from 8 nM to 184 nM (23-fold).

Going from `O=C(NC1CN(C2CN(C(=O)c3ccc4nc(-c5ccccc5)sc4c3)C2)C1)c1cscn1` [Cpd 22, N-{1′-[(2-Phenyl-1,3-benzothiazol-6-yl)carbonyl]-1,3′-biazetidin-3-yl}-1,3-thiazole-4-carboxamide] to `O=C(NC1CN(C2CN(C(=O)c3ccc4oc(-c5ccccc5)nc4c3)C2)C1)c1nccs1` [Cpd 35, N-{1′-[(2-Phenyl-1,3-benzoxazol-5-yl)carbonyl]-1,3′-biazetidin-3-yl}-1,3-thiazole-2-carboxamide], the IC50 rises from 86 nM to 341 nM (4-fold).

Compared with `O=C(NC1CN(C2CN(C(=O)c3ccc4c(-c5ccccc5)cccc4c3)C2)C1)c1ccccc1` [Cpd 25, N-{1′-[(5-Phenylnaphthalen-2-yl)carbonyl]-1,3′-biazetidin-3-yl}benzamide], `O=C(NC1CN(C2CN(C(=O)c3ccc4cc(-c5ccccc5)ccc4c3)C2)C1)c1ccccc1` [Cpd 34, N-{1′-[(6-Phenylnaphthalen-2-yl)carbonyl]-1,3′-biazetidin-3-yl}benzamide] is 2.2-fold higher in IC50: 154 nM for the first, 332 nM for the second.

Going from `O=C(NC1CN(C2CN(C(=O)c3ccc(Cc4ccc(C(F)(F)F)cc4)cc3)C2)C1)c1ccccc1` [Cpd 26, N-[1′-({4-[4-(Trifluoromethyl)benzyl]phenyl}carbonyl)-1,3′-biazetidin-3-yl]benzamide] to `O=C(c1ccccc1)c1ccc(C(=O)N2CC(N3CC(NC(=O)c4nccs4)C3)C2)cc1` [Cpd 38, N-(1′-{[4-(Phenylcarbonyl)phenyl]carbonyl}-1,3′-biazetidin-3-yl)-1,3-thiazole-2-carboxamide], the IC50 rises from 157 nM to 588 nM (3.7-fold). The first is the more potent here.

`O=C(NC1CN(C2CN(C(=O)c3ccc4nc(-c5cccc(C(F)(F)F)c5)oc4c3)C2)C1)c1nccs1` [Cpd 28, N-[1′-({2-[3-(Trifluoromethyl)phenyl]-1,3-benzoxazol-6-yl}carbonyl)-1,3′-biazetidin-3-yl]-1,3-thiazole-2-carboxamide] and `O=C(NC1CN(C2CN(C(=O)c3ccc4nc(-c5ccc(C(F)(F)F)cc5)oc4c3)C2)C1)c1nccs1` [Cpd 30, N-[1′-({2-[4-(Trifluoromethyl)phenyl]-1,3-benzoxazol-6-yl}carbonyl)-1,3′-biazetidin-3-yl]-1,3-thiazole-2-carboxamide] are within 1.5-fold of each other in IC50: 180 nM for the first, 264 nM for the second.

Compared with `O=C(NC1CN(C2CN(C(=O)c3ccc(Oc4ccccc4)cc3)C2)C1)c1nccs1` [Cpd 32, N-{1′-[(4-Phenoxyphenyl)carbonyl]-1,3′-biazetidin-3-yl}-1,3-thiazole-2-carboxamide], `O=C(NC1CN(C2CN(C(=O)c3ccc4cc(Br)ccc4c3)C2)C1)c1nccs1` [Cpd 40, N-{1′-[(6-Bromonaphthalen-2-yl)carbonyl]-1,3′-biazetidin-3-yl}-1,3-thiazole-2-carboxamide] is 3.1-fold higher in IC50: 287 nM for the first, 882 nM for the second.

Compared with `O=C(NC1CN(C2CN(C(=O)c3ccc4nc(-c5ccc(Cl)cc5)oc4c3)C2)C1)c1nccs1` [Cpd 33, N-(1′-{[2-(4-Chlorophenyl)-1,3-benzoxazol-6-yl]carbonyl}-1,3′-biazetidin-3-yl)-1,3-thiazole-2-carboxamide], `Cc1c(C(=O)N2CC(N3CC(NC(=O)c4ccccc4)C3)C2)sc2ccc(Cl)cc12` [Cpd 36, N-{1′-[(5-Chloro-3-methyl-1-benzothiophen-2-yl)carbonyl]-1,3′-biazetidin-3-yl}benzamide] is 1.5-fold higher in IC50: 303 nM for the first, 458 nM for the second.

With `CN(C(=O)c1nccs1)C1CN(C2CN(C(=O)c3cc4ccc(C(F)(F)F)cc4s3)C2)C1` [Cpd 37, N-Methyl-N-(1′-{[6-(trifluoromethyl)-1-benzothiophen-2-yl]carbonyl}-1,3′-biazetidin-3-yl)-1,3-thiazole-2-carboxamide] the IC50 was 476 nM.

Reference: patent US8759333B2, “Di-azetidinyl diamide as monoacylglycerol lipase inhibitors” (Janssen Pharmaceutica, NV, priority 2010, dated 2014)
